Counter-ions that a name gives are not always drawn.
Assays:
[1] = test system: tonic hindlimb extension in the MEST test in mice; assay: Maximal electroshock seizure threshold (MEST) test; format: in vivo
Experimental: A sinusoidal current alternation was delivered via saline-soaked transcorneal electrodes. Before stimulation, an ocular anesthetic (1% tetracaine hydrochloride solution obtained from Sigma-Aldrich, St. Louis, MO, USA) was administered to each eye of the mice. During stimulation, the mice were manually immobilized in a hand for 3–5 s and immediately relocated to a transparent box for behavioral observation after the stimulation. Hindlimb tonic extension was taken as an end point. Two experimental approaches were employed: (1) the maximal electroshock seizure threshold (MEST) test at varied current intensities and (2) the maximal electroshock (MES) test at a fixed current intensity.
In the MEST test, seizure thresholds were determined using the “up-and-down” method described by Kimball et al.[28] […] Each mouse was stimulated only once.

rat GlyT1 = target: T1, rat GlyT1 (Rattus norvegicus, UniProt P28572); assay: GlyT1 radioligand binding ([3H]glycine, rat brain cortex, Eurofins Panlabs)
T1 construct: tissue Eurofins Panlabs Discovery Services Taiwan, Ltd. (ran the assay); host or cells: Wistar rat brain cortex
T1 sequence (P28572 1-638): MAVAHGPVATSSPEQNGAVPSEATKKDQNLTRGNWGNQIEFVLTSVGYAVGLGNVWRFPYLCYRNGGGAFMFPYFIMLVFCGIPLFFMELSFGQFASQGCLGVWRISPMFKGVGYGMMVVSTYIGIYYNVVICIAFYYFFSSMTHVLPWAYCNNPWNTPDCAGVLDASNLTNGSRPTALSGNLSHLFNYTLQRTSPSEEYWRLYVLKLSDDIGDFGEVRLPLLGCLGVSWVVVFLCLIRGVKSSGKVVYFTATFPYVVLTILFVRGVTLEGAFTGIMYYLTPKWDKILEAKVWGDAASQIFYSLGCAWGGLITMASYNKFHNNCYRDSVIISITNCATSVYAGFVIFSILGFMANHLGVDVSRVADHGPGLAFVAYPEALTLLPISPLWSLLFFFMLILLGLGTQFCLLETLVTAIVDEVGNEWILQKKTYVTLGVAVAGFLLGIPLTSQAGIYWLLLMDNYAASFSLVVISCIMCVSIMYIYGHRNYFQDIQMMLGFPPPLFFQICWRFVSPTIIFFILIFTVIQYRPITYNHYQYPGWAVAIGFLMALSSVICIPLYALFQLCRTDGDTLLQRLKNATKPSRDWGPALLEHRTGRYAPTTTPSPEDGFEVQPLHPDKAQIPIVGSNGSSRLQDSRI

[2] = test system: human serum albumin and alpha-1-acid glycoprotein; assay: Plasma protein binding (TRANSIL XL PPB test); format: in vitro ADME; details: ± SD, fraction bound to plasma proteins, read-out: PPB fb (converted)
Experimental: (§1) A series of in vitro ADME-Tox tests were performed for SSR504734 in order to estimate its drugability. The ADME-Tox parameters including permeability, plasma protein binding, metabolic stability, neurotoxicity, and hepatotoxicity were carried out as described previously.[31],[32] The ability of SSR504734 to penetrate through the biological membrane by passive diffusion was estimated by the Gentest Precoated PAMPA Plate System (Corning, Tewksbury, MA) and expressed as the permeability coefficient (Pe). The protein binding analysis was performed by using the commercial TRANSIL^XL PPB test, which mimics in vitro physiological plasma conditions where human serum albumin (HAS) and alpha-1-acid glycoprotein AGP are present in a 24:1 ratio. The human metabolism of SSR504734 was studied using human liver microsomes (HLMs) provided by Sigma-Aldrich. The hepatotoxicity and neurotoxicity were estimated in cellular models with the use of hepatoma HepG2 and neuroblastoma SH-SY5Y cell lines to perform the preliminary safety tests. The cells were incubated with SSR504734 at the concentration range of 0.1–100 μM. 1 μM cytostatic drug doxorubicin (DX) was used as the reference.

[3] = Metabolic stability in human liver microsomes (HLMs); format: in vitro ADME
Experimental: as §1

GlyT1 = details: in vitro assay; cited from earlier work
[4] = read-out: % inhibition of control specific binding

## O=C(NC(c1ccccc1)C1CCCCN1)c1cccc(C(F)(F)F)c1Cl [SSR504734, 2-chloro-N-[(S)-phenyl[(2S)-piperidin-2-yl]methyl]-3-trifluoromethyl benzamide monohydrochloride]
[1]; 30 mg/kg i.p., 60 and 120 min after administration, vs control
  fold increase of seizure threshold (CS50), time-course: ~1.3 fold
[1]; 30 mg/kg i.p., at 30, 60, 120 and 240 min
  effect on seizure threshold (CS50), time-course: significantly raised the seizure threshold
[1]; 14-day repeated treatment, 30 mg/kg i.p.
  fold increase in CC50 value: 1.2 fold
[1]; 14-day repeated treatment, 3 and 10 mg/kg i.p.
  effect on seizure threshold: no changes in seizure threshold
[1]; acute, 10 mg/kg i.p., 60 min before test
  effect on threshold for tonic hindlimb extension: ineffective
[1]; acute, 30 mg/kg i.p., 60 min before test
  fold increase of current intensity necessary to induce hindlimb tonus: 1.2 fold
[1]; acute, 50 mg/kg i.p., 60 min before test
  fold increase of current intensity necessary to induce hindlimb tonus: 1.6 fold
Rat GlyT1; 0.1 μM, rat brain cortex
  % inhibition of control specific binding: moderate interaction
Rat GlyT1; [4]
  inhibition at 0.1 µM: 42%
  inhibition at 20 µM: 52%
  inhibition at 100 µM: 62%
[2]
  fraction unbound: 0.013
[3]; 120 min incubation with HLMs, UPLC analysis
  metabolized: 5%
[3]; after 120 min of incubation with human liver microsomes
  remaining at 2 h: 94.7%
[3]; after incubation with HLMs
  metabolic pathway, metabolite M1: hydroxylation, oxidation, and dehydrogenation
  metabolic pathway, metabolite M2: dehydrogenation
  metabolic pathway, metabolite M3: oxidation
GlyT1
  IC50 for GlyT1 inhibition: 7.8 (±2.6) ng/mL

Source: publication PMC11926788, “Effect of SSR504734, a Selective Glycine Transporter Type 1 Inhibitor, on Seizure Thresholds, Neurotransmitter Levels, and Inflammatory Markers in Mice” (ACS Chemical Neuroscience, 2025)
